In patent US20150274661A1, “INDOL-AMIDE COMPOUNDS AS BETA-AMYLOID INHBITORS” (Hoffmann-La Roche Inc., priority 2012, published 2015) one finds EC50 data, which are given here for 28 molecules.

The test relates to Aβ42 secretion. Description: Cellular γ-secretase assay (inhibition of Aβ42 secretion). The format is cell-based. The settings on record: human neuroglioma H4 cells overexpressing human APP, 22 hours incubation. As for the experimental part: Cellular γ-Secretase Assay
The compounds were investigated in accordance with the test given hereinafter.
Human neuroglioma H4 cells overexpressing human APP were plated at 30,000 cells/well/200 μL in 96-well plates in IMDM media containing 10% FCS, […] Hygromycin B and incubated for 2 hours at 37° C., 5% CO2 prior to adding test compounds.
Compounds for testing were dissolved in 100% Me2SO yielding in a 10 mM stock solution. Typically 12 μL of these solutions were further diluted in 1000 μL of IMDM media (w/o FCS). Subsequent 1:1 dilutions gave a ten point dose response curve. 100 μL of each dilution was added to the cells in 96-well plates. Appropriate controls using vehicle only and reference compound were applied to this assay. The final concentration of Me2SO was 0.4%.
After incubation for 22 hours at 37° C., 5% CO2, 50 μL supernatant was transferred into round-bottom 96-well polypropylene plates for detection of Aβ42. 50 μL assay buffer (50 mM Tris/Cl, pH 7.4, 60 mM NaCl, 0.5% BSA, 1% TWEEN 20) was added to the wells followed by the addition of 100 μL of detection antibody (ruthenylated BAP15 0.0625 μg/mL in assay buffer). 50 μL of a premix of capture antibody (biotinylated 6E10 antibody, 1 μg/mL) and Streptavidin-coated magnetic beads (Dynal M-280, 0.125 mg/mL) were preincubated for 1 hour at room temperature before adding the assay plates. Assay plates were incubated on a shaker for 3 hours at room temperature and finally read in the Bioveris M8 Analyser according to the manufacturer's instructions (Bioveris).
IC50 values for inhibition of Aβ42 secretion were calculated by nonlinear regression fit analysis using XLfit 4.0 software (IDBS).

Take `O=C(Nc1cncc(F)c1)c1cc2cc(C3CCN(Cc4ccccc4)C3)ccc2[nH]1` (stereo not shown) [Example 74, 5-(1-Benzyl-pyrrolidin-3-yl)-1H-indole-2-carboxylic acid (5-fluoro-pyridin-3-yl)-amide]: where the note is “Homo sapiens, 22 h”, the concentration for a half-maximal effect (EC50) (usually the midpoint of the concentration-response curve) was 1860 nM.

In turn, `O=C(Nc1cccc(F)c1)c1cc2cc(C3CCCN(CCO)C3)ccc2[nH]1` (stereo not shown) [Example 67, N-(3-Fluorophenyl)-5-(1-(2-hydroxyethyl)piperidin-3-yl)-1H-indole-2-carboxamide] yielded an EC50 (Homo sapiens, 22 h) of 657 nM. Turning to `COCCN1CCCC(c2ccc3[nH]c(C(=O)Nc4cccc(F)c4)cc3c2)C1` (stereo not shown) [Example 66, N-(3-Fluorophenyl)-5-(1-(2-methoxyethyl)piperidin-3-yl)-1H-indole-2-carboxamide], the concentration for a half-maximal effect (EC50) (Homo sapiens, 22 h) is 727 nM. The molecule `O=C(Nc1cc(F)cc(F)c1)c1cc2cc(C3CCCN(C(=O)C4CC4)C3)ccc2[nH]1` (stereo not shown) [Example 54, 5-(1-Cyclopropanecarbonyl-piperidin-3-yl)-1H-indole-2-carboxylic acid (3,5-difluoro-phenyl)-amide] had an EC50 (Homo sapiens, 22 h) of 403 nM. `CC(C)N1CCCC(c2ccc3[nH]c(C(=O)Nc4cccc(F)c4)cc3c2)C1` (stereo not shown) [Example 46, 5-(1-Isopropyl-piperidin-3-yl)-1H-indole-2-carboxylic acid (3-fluoro-phenyl)-amide]: under “Homo sapiens, 22 h”, the EC50 was determined as 588 nM. As for `CC(C)N1CCC(c2ccc3[nH]c(C(=O)Nc4ccccc4F)cc3c2)CC1` [Example 24, 5-(1-Isopropyl-piperidin-4-yl)-1H-indole-2-carboxylic acid (2-fluoro-phenyl)-amide], under “Homo sapiens, 22 h”, a half-maximal effect (EC50) was put at 19400 nM. On to `C=CCCN1CCC(c2ccc3[nH]c(C(=O)Nc4cncc(F)c4)cc3c2)C1` (stereo not shown) [Example 78, 5-(1-(But-3-enyl)pyrrolidin-3-yl)-N-(5-fluoropyridin-3-yl)-1H-indole-2-carboxamide], for which a half-maximal response (Homo sapiens, 22 h) (EC50) required 927 nM. As for `CC(C)C(=O)N1CC[C@H](c2ccc3[nH]c(C(=O)Nc4cc(F)cc(F)c4)cc3c2)C1` [Example 105, 5-((R)-1-Isobutyryl-pyrrolidin-3-yl)-1H-indole-2-carboxylic acid (3,5-difluoro-phenyl)-amide], the response (Homo sapiens, 22 h) was half-maximal at 1210 nM (EC50). For the setting “Homo sapiens, 22 h”, `CCN1CCC(c2ccc3[nH]c(C(=O)Nc4ccc(F)cc4)cc3c2)CC1` [Example 42, 5-[1-Ethyl-piperidin-4-yl]-1H-indole-2-carboxylic acid (4-fluoro-phenyl)-amide] had an EC50 of 1910 nM. Against the preceding molecule, the EC50 is about 1.6-fold higher.

The molecule `C[C@@H](c1ccc2[nH]c(C(=O)Nc3cc(F)cc(F)c3)cc2c1)[C@@H]1CCN(CC(F)(F)F)C1` [Example 120, N-(3,5-Difluorophenyl)-5-((R)-1-((S)-1-(2,2,2-trifluoroethyl)pyrrolidin-3-yl)ethyl)-1H-indole-2-carboxamide] had an EC50 (Homo sapiens, 22 h) of 7420 nM. The molecule `C[C@@H](CN1CCCC1)c1ccc2[nH]c(C(=O)Nc3cccc(F)c3)cc2c1` [Example 119] had an EC50 (Homo sapiens, 22 h) of 1730 nM. As to `CC(C)N1CCC[C@@H](c2ccc3[nH]c(C(=O)Nc4cccc(F)c4)cc3c2)C1` [Example 111, 5-((S)-1-Isopropyl-piperidin-3-yl)-1H-indole-2-carboxylic acid (3-fluoro-phenyl)-amide], the EC50 (Homo sapiens, 22 h) was 876 nM.

With `N#CCN1CCC(c2ccc3[nH]c(C(=O)Nc4cccc(F)c4)cc3c2)C1` (stereo not shown) [Example 16, 5-(1-(Cyanomethyl)pyrrolidin-3-yl)-N-(3-fluorophenyl)-1H-indole-2-carboxamide], for the setting “Homo sapiens, 22 h”, a half-maximal response (EC50) required 373 nM.

`O=C(Nc1ccc(F)c(F)c1)c1cc2cc(C3CCCOC3)ccc2[nH]1` (stereo not shown) [Example 86, 5-(Tetrahydro-pyran-3-yl)-1H-indole-2-carboxylic acid (3,4-difluoro-phenyl)-amide]: under “Homo sapiens, 22 h”, a half-maximal response (EC50) required 990 nM. In the case of `CC(C)N1CCC[C@H](c2ccc3[nH]c(C(=O)Nc4cccc(F)c4)cc3c2)C1` [Example 110, 5-((R)-1-Isopropyl-piperidin-3-yl)-1H-indole-2-carboxylic acid (3-fluoro-phenyl)-amide], for the setting “Homo sapiens, 22 h”, the EC50 was 116 nM. The molecule `O=C(Nc1cccc(F)c1)c1cc2cc(C3CCCN(CC(F)(F)F)C3)ccc2[nH]1` (stereo not shown) [Example 73, N-(3-Fluorophenyl)-5-(1-(2,2,2-trifluoroethyl)piperidin-3-yl)-1H-indole-2-carboxamide] displayed an EC50 (Homo sapiens, 22 h) of 9290 nM. As for `N#Cc1cc(F)cc(NC(=O)c2cc3cc(C4CCNC4)ccc3[nH]2)c1` (stereo not shown) [Example 9, N-(3-Cyano-5-fluorophenyl)-5-(pyrrolidin-3-yl)-1H-indole-2-carboxamide], under “Homo sapiens, 22 h”, the EC50 is 1270 nM. On to `CC(C)S(=O)(=O)N1CCC(c2ccc3[nH]c(C(=O)Nc4cc(F)cc(F)c4)cc3c2)C1` (stereo not shown) [Example 12, 5-[1-(Propane-2-sulfonyl)-pyrrolidin-3-yl]-1H-indole-2-carboxylic acid (3,5-difluoro-phenyl)-amide], for which a half-maximal effect (EC50) was put at 1710 nM. `CC(C)S(=O)(=O)N1CCCC(c2ccc3[nH]c(C(=O)Nc4cc(F)cc(F)c4)cc3c2)C1` (stereo not shown) [Example 50, 5-[1-(Propane-2-sulfonyl)-piperidin-3-yl]-1H-indole-2-carboxylic acid (3,5-difluoro-phenyl)-amide] displayed an EC50 (Homo sapiens, 22 h) of 202 nM. Molecule `N#Cc1cc(F)cc(NC(=O)c2cc3cc(C4CCN(Cc5ccccc5)C4)ccc3[nH]2)c1` (stereo not shown) [Example 5, 5-(1-Benzylpyrrolidin-3-yl)-N-(3-cyano-5-fluorophenyl)-1H-indole-2-carboxamide] yielded an EC50 (Homo sapiens, 22 h) of 631 nM. Regarding `O=C(Nc1cc(F)cc(F)c1)c1cc2cc(C3CCNC3)ccc2[nH]1` (stereo not shown) [Example 7, 5-Pyrrolidin-3-yl-1H-indole-2-carboxylic acid (3,5-difluoro-phenyl)-amide], where the note is “Homo sapiens, 22 h”, the concentration for a half-maximal effect (EC50) turned out to be 253 nM.

The molecule `C=C(c1ccc2[nH]c(C(=O)Nc3cc(F)cc(F)c3)cc2c1)C1CCN(Cc2ccccc2)C1` (stereo not shown) [Example 91, 5-(1-(1-Benzylpyrrolidin-3-yl)vinyl)-N-(3,5-difluorophenyl)-1H-indole-2-carboxamide] registered an EC50 (Homo sapiens, 22 h) of 1490 nM. For the molecule `CC(C)N1CCCC(c2ccc3[nH]c(C(=O)Nc4cc(F)cc(C#N)c4)cc3c2)C1` (stereo not shown) [Example 31, 5-(1-Isopropyl-piperidin-3-yl)-1H-indole-2-carboxylic acid (3-cyano-5-fluoro-phenyl)-amide], the EC50 (Homo sapiens, 22 h) worked out at 2380 nM. `N#Cc1ccc(N2CCC(c3ccc4[nH]c(C(=O)Nc5cncc(F)c5)cc4c3)C2)nn1` (stereo not shown) [Example 83, 5-(1-(6-Cyanopyridazin-3-yl)pyrrolidin-3-yl)-N-(5-fluoropyridin-3-yl)-1H-indole-2-carboxamide] returned an EC50 (Homo sapiens, 22 h) of 3340 nM. `CC(C)N1CCC(c2ccc3[nH]c(C(=O)Nc4ccc(F)nc4)cc3c2)CC1` [Example 32, 5-(1-Isopropyl-piperidin-4-yl)-1H-indole-2-carboxylic acid (6-fluoro-pyridin-3-yl)-amide] displayed an EC50 (Homo sapiens, 22 h) of 8150 nM.

In the case of `CC(=O)N1CCCC(c2ccc3[nH]c(C(=O)Nc4cc(F)cc(F)c4)cc3c2)C1` (stereo not shown) [Example 52, 5-(1-Acetyl-piperidin-3-yl)-1H-indole-2-carboxylic acid (3,5-difluoro-phenyl)-amide], under “Homo sapiens, 22 h”, a half-maximal response (EC50) required 273 nM. On to `CC(C)N1CCC(c2ccc3[nH]c(C(=O)Nc4ccc(F)cc4F)cc3c2)CC1` [Example 29, 5-(1-Isopropyl-piperidin-4-yl)-1H-indole-2-carboxylic acid (2,4-difluoro-phenyl)-amide], for which the EC50 (Homo sapiens, 22 h) is 12600 nM.

The molecule `O=C(Nc1cncc(F)c1)c1cc2cc(C3CCNC3)ccc2[nH]1` (stereo not shown) [Example 75, N-(5-Fluoropyridin-3-yl)-5-(pyrrolidin-3-yl)-1H-indole-2-carboxamide] had an EC50 (Homo sapiens, 22 h) of 1310 nM.
